Experimental data as given in paper PMC12185669 (Archives of Toxicology, 2025).
Like-named read-outs stand apart in the source and are kept apart here.

Columns and labels:
[1] = Quantification in postmortem blood and urine of dipyanone-positive forensic cases; conditions: for concentration in blood, case #2: autoptic heart blood; for concentration in urine, case #2: autoptic urine
[2] = target: human MOR membrane preparation (Homo sapiens, UniProt P35372); experiment: biochemical
[3] = target: human KOR membrane preparation (Homo sapiens, UniProt P41145); experiment: HTRF-based GTP Gi binding assay, KOR; format: biochemical
human KOR membrane preparation, sequence (P41145 whole entry): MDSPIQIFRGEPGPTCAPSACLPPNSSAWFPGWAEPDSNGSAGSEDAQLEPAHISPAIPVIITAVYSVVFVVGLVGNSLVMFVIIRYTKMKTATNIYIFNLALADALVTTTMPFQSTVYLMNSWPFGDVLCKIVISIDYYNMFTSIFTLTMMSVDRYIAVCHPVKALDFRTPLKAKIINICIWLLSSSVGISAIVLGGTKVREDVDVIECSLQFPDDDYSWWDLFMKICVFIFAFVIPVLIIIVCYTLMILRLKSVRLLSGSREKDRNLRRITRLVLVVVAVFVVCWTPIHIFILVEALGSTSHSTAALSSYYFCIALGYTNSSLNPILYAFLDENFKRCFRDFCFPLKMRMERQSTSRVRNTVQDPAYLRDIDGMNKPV

[4] = target: human DOR membrane preparation (Homo sapiens, UniProt P41143); experiment: HTRF-based GTP Gi binding assay, DOR; format: biochemical
human DOR membrane preparation, sequence (P41143 whole entry): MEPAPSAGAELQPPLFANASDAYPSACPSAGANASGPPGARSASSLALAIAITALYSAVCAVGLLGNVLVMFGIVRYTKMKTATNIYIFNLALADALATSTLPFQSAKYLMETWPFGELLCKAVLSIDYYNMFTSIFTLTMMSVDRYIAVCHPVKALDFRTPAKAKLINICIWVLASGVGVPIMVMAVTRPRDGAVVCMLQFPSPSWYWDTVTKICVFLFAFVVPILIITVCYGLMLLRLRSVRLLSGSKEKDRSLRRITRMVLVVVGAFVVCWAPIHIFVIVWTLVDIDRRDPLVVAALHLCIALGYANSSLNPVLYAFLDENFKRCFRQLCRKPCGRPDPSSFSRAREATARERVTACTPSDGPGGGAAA

[5] = tested on: ten-donor-pooled cryopreserved human hepatocytes; experiment: Human hepatocyte incubation, LC-HRMS/MS metabolite identification; format: in vitro ADME; conditions: for Hepatocytes peak area: LC-HRMS, positive ionisation mode, three hours of incubation with human hepatocytes, ND not detected; for portion of the total metabolites' signal: hepatocyte incubation, three hours
Procedure: Dipyanone incubations with human hepatocytes were carried out as previously described (Carlier et al. [2022]; Taoussi et al. [2024]). Briefly, the hepatocytes were thawed in 50 mL of thawing medium at 37 °C. After centrifugation (100 g, 5 min), the supernatant was discarded and the pellet was resuspended in 50 mL of SWM at 37 °C. Following a second centrifugation (100 g, 5 min), the supernatant was removed, and the pellet was resuspended in 2 mL of SWM at 37 °C. Cell viability was determined using the trypan blue exclusion method, and the SWM volume was adjusted to reach a concentration of 2 × 10^6 cells/mL. In sterile 24-well culture plates, 250 µL hepatocyte suspension was gently mixed with 250 µL of dipyanone (20 µmol/L in SWM). The plates were incubated at 37 °C, and reactions were stopped after 0 or 3 h with 500 µL ice-cold acetonitrile, followed by centrifugation (15,000 g, 10 min). Negative (without SWM, hepatocytes, or dipyanone) and positive controls (diclofenac incubation) were incubated for 0 and 3 h under the same conditions to exclude nonspecific reactions and ensure proper metabolic activity. Incubates were stored at – 80° until analysis.
A 100 µL volume of incubate was mixed with 100 µL of acetonitrile and centrifuged for 10 min, 15,000 g at room temperature for protein precipitation (acetonitrile:SWM, 3:1, v/v). The supernatant was dried under a nitrogen stream at 37 °C. […] Again, the solution was centrifuged (10 min, 15,000 g) at room temperature. The resulting supernatant was transferred into vials with a glass insert, and 10 µL was injected into the chromatographic system for analysis.
The total chromatographic run time was 24 min.

[6] = human, in vivo
Procedure: (§1) Samples were thawed at room temperature. A 100 µL aliquot was mixed with 200 µL of acetonitrile and centrifuged for 10 min at 15,000 g at room temperature. The supernatants were evaporated to dryness under nitrogen at 37 °C. The residues were reconstituted in 100 µL of a mixture containing 95% mobile phase A and 5% mobile phase B (v/v). After centrifugation under the same conditions, the supernatants were transferred to autosampler vials with glass inserts. A 10 µL volume was injected into the chromatographic system for analysis.
(§2) To investigate glucuronic acid conjugation, 100 µL of urine was mixed with 10 µL of 10 mol/L ammonium acetate (pH 5.0) and 100 µL of β-glucuronidase (5000 units), then incubated at 37 °C for 90 min. Subsequently, 400 µL of ice-cold acetonitrile was added to the mixtures, which were centrifuged for 10 min at 15,000 g at room temperature. The supernatants were evaporated to dryness under nitrogen at 37 °C and reconstituted in 100 µL of a mixture containing 95% mobile phase A and 5% mobile phase B (v/v). After centrifugation under the same conditions, the supernatants were transferred to autosampler vials with glass inserts. A 10 µL volume was injected into the chromatographic system for analysis.
(§3) The analyses were conducted by liquid chromatography-high-resolution tandem mass spectrometry (LC-HRMS/MS) with a DIONEX UltiMate 3000 liquid chromatographer coupled to a Q Exactive quadrupole-Orbitrap hybrid high-resolution mass spectrometer equipped with a heated electrospray ionisation (HESI) source from Thermo Scientific (Waltham, Massachusetts, USA).
(§4) The compounds were separated using a Kinetex Biphenyl column (150 × 2.1 mm, 2 μm) from Phenomenex (Torrance, California, USA). The separation was achieved using mobile phases A and B at a flow rate of 0.4 mL/min. The gradient elution program was as follows: 2% B was held for 2 min, then increased to 25% B over 12 min, followed by a rapid increase to 95% B within 2 min, and held for 4 min. Subsequently, the initial conditions were restored within 0.1 min and maintained for 3.9 min. The total chromatographic run time was 24 min. Throughout the analysis, the column oven temperature was maintained at 37 ± 1 °C, while the autosampler temperature was set to 10 ± 1 C.
(§5) All samples were analysed in both positive- and negative-ion modes, requiring two separate injections while maintaining the same HESI conditions. […] Prior to each analytical session, mass calibration was performed using certified calibration solutions in both positive and negative ion modes. To enhance accuracy, a lock mass list was compiled for positive- (m/z 279.0933, 144.9821, 146.9803) and negative ion modes (m/z 265.1479, 162.9824, 248.9604).
(§6) The mass spectrometer acquired from 1 to 20 min of the chromatographic run in full-scan HRMS (FullMS)/data-dependent MS/MS (ddMS^2) mode. The FullMS settings were as follows: range, m/z 100 to 650; resolution at full width at half maximum at m/z 200, 70,000; automatic gain control target, 1 × 10^6; and maximum injection time, 200 ms. For ddMS^2, the settings were: automatic gain control target, 2 × 10^5; maximum injection time, 64 ms; isolation window, m/z 1.2; resolution, 17,500; and stepped normalised collision energy, 40, 70, and 90 a.u. A maximum of five ddMS^2 scans were triggered for each FullMS scan, with a minimum intensity of 10^4 and dynamic exclusion of 2.0 s..
(§7) LC-HRMS/MS data were processed with Thermo Scientific Compound Discoverer in a single analysis.

µ-opioid receptor = conditions: cited from earlier work
mouse [7] = tested on: mouse; design: method as in Janssen and Jageneau 2011; conditions: ref Janssen and Jageneau 2011; cited from earlier work
mouse [8] = tested on: mouse; design: method as in Bockmühl and Ehrhart 1949; conditions: mouse tail pinch test; ref Bockmühl and Ehrhart 1949; cited from earlier work
[9] = design: method as in Scott et al. 1947; conditions: ref Scott et al. 1947; cited from earlier work
mice = conditions: ref Scott et al. 1946, 1947; cited from earlier work
[10] = detected alongside other NSOs; ref Vandeputte et al. 2023; cited from earlier work
[11] = Metabolite identification in authentic postmortem urine samples by LC-HRMS/MS; conditions: for Urine #1 peak area with β-gluc: postmortem urine case #1, after β-glucuronidase hydrolysis; for Urine #1 peak area with β-gluc / Urine #1 peak area / Urine #2 peak area with β-gluc / Urine #2 peak area: ND not detected; for Urine #1 peak area: postmortem urine case #1, no hydrolysis; for Urine #1 peak area / Urine #2 peak area: positive ionisation mode; for Urine #2 peak area with β-gluc: postmortem urine case #2, after β-glucuronidase hydrolysis; for portion of the total metabolites' signal in urine: both urine samples; for Urine #2 peak area: postmortem urine case #2, no hydrolysis
Procedure: as §1, §2, §3, §4, §5, §6, §7

human MOR membrane preparation, sequence (P35372 whole entry): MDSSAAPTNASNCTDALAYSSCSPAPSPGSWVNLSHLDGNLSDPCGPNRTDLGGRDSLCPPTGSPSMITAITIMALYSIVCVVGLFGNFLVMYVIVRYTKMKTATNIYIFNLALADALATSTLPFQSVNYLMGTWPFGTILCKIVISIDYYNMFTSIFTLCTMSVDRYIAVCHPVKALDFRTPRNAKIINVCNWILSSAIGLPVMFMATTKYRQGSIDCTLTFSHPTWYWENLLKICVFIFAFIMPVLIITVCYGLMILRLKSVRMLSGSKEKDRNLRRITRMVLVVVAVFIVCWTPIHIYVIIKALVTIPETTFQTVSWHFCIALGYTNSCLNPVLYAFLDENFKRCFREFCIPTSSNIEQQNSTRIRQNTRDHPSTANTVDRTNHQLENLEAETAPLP

CC[C@@H]1CN2CC[C@@]3(O)C(=Nc4cccc(OC)c43)[C@@H]2C[C@@H]1/C(=C\OC)C(=O)OC [7-hydroxymitragynine]
concentration in blood, case #2 [1]: 4.7 ng/mL | concentration in urine, case #2 [1]: > 200 ng/mL

mitragynine
concentration in blood, case #2 [1]: 160 ng/mL | concentration in urine, case #2 [1]: > 200 ng/mL

CNC1(c2ccccc2)CCCCC1=O (centres unmarked) [deschloroketamine]
concentration in blood, case #2 [1]: 1.0 ng/mL | concentration in urine, case #2 [1]: 23 ng/mL

CCC(=O)C(CC(C)N1CCCC1)(c1ccccc1)c1ccccc1 (centres unmarked) [Dipyanone, 4,4-diphenyl-6-(1’-pyrrolidinyl)-3-heptanone]
EC50 [2]: 96.8 nM | EC50 [3]: 380 nM | Emax ([3]; normalised to U-50488, mean (95% CI), n = 3, read-out: KOR Emax relative to U-50488): 13% | EC50 [4]: 1070 nM | Emax ([4]; normalised to SNC-80, mean (95% CI), n = 3, read-out: DOR Emax relative to SNC-80): 56% | Hepatocytes peak area [5]: 7.7 × 10^8 | LC-HRMS/MS peak area after incubation relative to its original value ([5]; after three hours of incubation, compared to the controls): approximately one-sixth | Urine #2 peak area [6]: 1.3 × 10^10 | efficacy (Emax) compared to hydromorphone at the µ-opioid receptor (µ-opioid receptor): 155% | EC50 (µ-opioid receptor; read-out: EC50 at MOR, β-arrestin2 recruitment assay): 39.9 nM | median effective dose, mouse hot plate assay (mouse [7]): 6.82 mg/kg | analgesic properties relative to pethidine (mouse [8]): 5–10 times | analgesic threshold [9]: 1 to 2 mg/kg | LD50 in mice (mice): ~ 17 mg/kg | blood concentration, postmortem case in the USA [10]: 370 ng/mL | Urine #1 peak area with β-gluc [11]: 1.3 × 10^10 | Urine #1 peak area [11]: 1.1 × 10^10 | Urine #2 peak area with β-gluc [11]: 8.0 × 10^9 | concentration in urine, four dipyanone-related fatalities ([1]; Germany 2022 and 2023, own unpublished data): 80 to 5500 ng/mL | concentration in blood, case #2 [1]: 80 ng/mL | concentration in blood, case #1 ([1]; postmortem femoral blood): 720 ng/mL

CNC1(c2ccccc2F)CCCCC1=O (centres unmarked) [2-fluoro-deschloroketamine]
concentration in blood, case #2 [1]: < 1.0 ng/mL | concentration in urine, case #2 [1]: > 50 ng/mL

CC=C1N(CCCCO)C(C)CC1(c1ccccc1)c1ccccc1 (centres unmarked) [M12, 4’-[2-ethylidene-5-methyl-3,3-diphenylpyrrolidin-1-yl]butan-1’-ol]
Hepatocytes peak area [5]: 1.8 × 10^7 | portion of the total metabolites' signal [5]: 50% | portion of the total metabolites' signal in urine [11]: 23–26% | Urine #1 peak area with β-gluc [11]: 3.4 × 10^9 | Urine #1 peak area [11]: 2.3 × 10^9 | Urine #2 peak area with β-gluc [11]: 1.7 × 10^9 | Urine #2 peak area [11]: 2.1 × 10^9

CCC(=O)C(CC(C)N(C)C)(c1ccccc1)c1ccccc1 (centres unmarked) [methadone, reference compound]
median effective dose, mouse hot plate assay (mouse [7]): 5.18 mg/kg | analgesic threshold [9]: 1 to 2 mg/kg | LD50 in mice (mice): ~ 17 mg/kg

CC=C1N(CCCC(=O)O)C(C)CC1(c1ccccc1)c1ccccc1 (centres unmarked) [M13, 4’-[2-ethylidene-5-methyl-3,3-diphenylpyrrolidin-1-yl]butanoic acid]
Hepatocytes peak area [5]: 9.5 × 10^6 | portion of the total metabolites' signal [5]: 27% | portion of the total metabolites' signal in urine [11]: 61% | Urine #1 peak area with β-gluc [11]: 5.7 × 10^9 | Urine #1 peak area [11]: 5.4 × 10^9 | Urine #2 peak area with β-gluc [11]: 3.3 × 10^9 | Urine #2 peak area [11]: 5.6 × 10^9

CCNC1(c2ccccc2)CCCCC1=O (centres unmarked) [deschloro-N-ethylketamine]
concentration in blood, case #2 [1]: 46 ng/mL | concentration in urine, case #2 [1]: > 50 ng/mL

CC(N)Cc1ccccc1F (centres unmarked) [2-fluoroamphetamine]
concentration in blood, case #2 [1]: 24 ng/mL

2-fluoromethamphetamine
concentration in blood, case #2 [1]: 96 ng/mL
